Laboratory results published in patent publication US8916702B2 (priority 2012, dated 2014).

The molecules below were run on HCV pseudoparticles (genotype 1a HCV E1 and E2 envelope, H77C isolate) (assay: microbe, parasite or virus in culture). Conditions: Hepatitis C virus, Huh-7, 48 h, HCV pseudoparticle infection of Huh7 cells, luciferase 2 days after infection; average of duplicates.
Type: cell-based

Which EC50 does the source give for `COC(=O)[C@H](CNC(=O)C(=O)Nc1ccc(C(F)(F)F)cc1)NC(=O)c1ccc(Nc2nc(NC3(c4ccc(Cl)cc4)CC3)nc(OCC(F)(F)F)n2)cc1` [Compound 1255] here?
Its EC50 is 1.1 nM.

Which EC50 does the source give for `COC(=O)[C@H](CNC(=O)C(=O)Nc1ccnc(OC)c1)NC(=O)c1ccc(Nc2nc(NC3(c4ccc(Cl)cc4)CC3)nc(OCC(F)(F)F)n2)cc1` [Compound 1241] here?
The EC50 was 0.99 nM.

For `O=C(NCCc1ccncc1)C(=O)NC[C@H](NC(=O)c1ccc(Nc2nc(NC3(c4ccc(Cl)cc4)CC3)nc(OCC(F)(F)F)n2)cc1)C(=O)O` [Compound 1400], which EC50 is on record?
The EC50 was 3.77 nM.

Same assay, conditions: Hepatitis C virus, Huh-7, 48 h, HCV pseudoparticles (genotype 1a, H77C) in Huh7 cells; average of duplicate; luciferase 2 days after infection

`C=Cc1ccc(NC(=O)C(=O)NCC(C)(C)CNC(=O)c2ccc(Nc3nc(NC4(c5ccc(Cl)cc5)CC4)nc(OCC(F)(F)F)n3)cc2F)cc1` [Compound 3515] was tested. Which EC50 did it give?
Its EC50 is 0.017 nM.

Same assay, conditions: Hepatitis C virus, Huh-7, 48 h, read-out: Activity (EC50 class), HCV pseudoparticle infection of Huh7 cells, luciferase 2 days after infection; EC50 expressed as class A/B

For `COC(=O)[C@H](CNC(=O)C(=O)NCCc1ccc(OC)cc1)NC(=O)c1ccc(Nc2nc(NC3(c4ccc(Cl)cc4)CC3)nc(OCC(F)(F)F)n2)cc1` [Compound 1287], which EC50 is on record?
Its EC50 is 0.01 to 10 nM.

How did the EC50 turn out when `CN(C(=O)C(=O)NC[C@H](NC(=O)c1ccc(Nc2nc(NC3(c4ccc(Cl)cc4)CC3)nc(OCC(F)(F)F)n2)cc1)C(=O)O)c1ccccc1` [Compound 1365] was run?
Its EC50 is 0.01 to 10 nM.

With `O=C(NC[C@H](NC(=O)c1ccc(Nc2nc(NC3(c4ccc(Cl)cc4)CC3)nc(OCC(F)(F)F)n2)cc1)C(=O)O)C(=O)N[C@@H]1C[C@H]1c1ccccc1` [Compound 1406] as the molecule, how does the EC50 read?
The EC50 was 0.01 to 10 nM.

How did the EC50 turn out when `Cc1cccc(C2CC2CNC(=O)C(=O)NCC[C@H](NC(=O)c2ccc(Nc3nc(NC4(c5ccc(Cl)cc5)CC4)nc(OCC(F)(F)F)n3)cc2)C(=O)O)c1` (stereo partly drawn) [Compound 1434] was run?
Its EC50 is 0.01 to 10 nM.

With `CC(C)(CNC(=O)C(=O)NCc1ccc(F)cc1F)CNC(=O)c1ccc(Nc2nc(NC3(c4ccc(Cl)cc4)CC3)nc(OCC(F)(F)F)n2)cc1` [Compound 1034, N1-(3-(4-(4-(1-(4-chlorophenyl)cyclopropylamino)-6-(2,2,2-trifluoroethoxy)-1,3,5-triazin-2-ylamino)benzamido)-2,2-dimethylpropyl)-N2-(2,4-difluorobenzyl)oxalamide] as the molecule, how does the EC50 read?
Its EC50 is 0.01 to 10 nM.

Which EC50 does the source give for `O=C(NCCc1c[nH]cn1)C(=O)NC[C@H](NC(=O)c1ccc(Nc2nc(NC3(c4ccc(Cl)cc4)CC3)nc(OCC(F)(F)F)n2)cc1)C(=O)O` [Compound 1407] here?
Its EC50 is 0.01 to 10 nM.

How did the EC50 turn out when `COC(=O)[C@H](CCNC(=O)C(=O)NNc1ccccc1)NC(=O)c1ccc(Nc2nc(NC3(c4ccc(Cl)cc4)CC3)nc(OCC(F)(F)F)n2)cc1` [Compound 1220] was run?
The EC50 was 0.01 to 10 nM.

Which EC50 does the source give for `COc1ccc(CNC(=O)C(=O)NCC[C@H](NC(=O)c2ccc(Nc3nc(NC4(c5ccc(Cl)cc5)CC4)nc(OCC(F)(F)F)n3)cc2)C(=O)O)cc1OC` [Compound 1184] here?
Its EC50 is 0.01 to 10 nM.

`Cc1ccc(CNC(=O)C(=O)NCC[C@H](NC(=O)c2ccc(Nc3nc(NC4(c5ccc(Cl)cc5)CC4)nc(OCC(F)(F)F)n3)cc2)C(=O)O)c(F)c1` [Compound 1188] was tested. Which EC50 did it give?
Its EC50 is 0.01 to 10 nM.

For `CCC1CCC(NC(=O)C(=O)NCC[C@H](NC(=O)c2ccc(Nc3nc(NC4(c5ccc(Cl)cc5)CC4)nc(OCC(F)(F)F)n3)cc2)C(=O)OC)CC1` (stereo partly drawn) [Compound 1103], which EC50 is on record?
Its EC50 is 0.01 to 10 nM.

How did the EC50 turn out when `O=C(NCCc1ccncc1)C(=O)NCC[C@H](NC(=O)c1ccc(Nc2nc(NC3(c4ccc(Cl)cc4)CC3)nc(OCC(F)(F)F)n2)cc1)C(=O)O` [Compound 1332] was run?
Its EC50 is 0.01 to 10 nM.

For `COC(=O)[C@H](CNC(=O)C(=O)Nc1ccc(C(F)(F)F)cc1)NC(=O)c1ccc(Nc2nc(NC3(c4ccc(Cl)cc4)CC3)nc(OCC(F)(F)F)n2)cc1` [Compound 1255], which EC50 is on record?
Its EC50 is 0.01 to 10 nM.

How did the EC50 turn out when `COC(=O)[C@H](CNC(=O)C(=O)Nc1ccnc(OC)c1)NC(=O)c1ccc(Nc2nc(NC3(c4ccc(Cl)cc4)CC3)nc(OCC(F)(F)F)n2)cc1` [Compound 1241] was run?
Its EC50 is 0.01 to 10 nM.

`O=C(NCCc1ccncc1)C(=O)NC[C@H](NC(=O)c1ccc(Nc2nc(NC3(c4ccc(Cl)cc4)CC3)nc(OCC(F)(F)F)n2)cc1)C(=O)O` [Compound 1400] was tested. Which EC50 did it give?
Its EC50 is 0.01 to 10 nM.

`COC(=O)[C@@H](CCNC(=O)C(=O)NCC1CC1c1ccc(F)cc1)NC(=O)c1ccc(Nc2nc(NC3(c4ccc(Cl)cc4)CC3)nc(OCC(F)(F)F)n2)cc1` (stereo partly drawn) [Compound 1389] was tested. Which EC50 did it give?
Its EC50 is 0.01 to 10 nM.

Same assay, conditions: Hepatitis C virus, Huh-7, 48 h, read-out: Activity (EC50 class), HCV pseudoparticles, Huh7 cells, luciferase 2 days after infection; average of duplicates

For `C#Cc1cccc(NC(=O)C(=O)NC[C@H](NC(=O)c2ccc(Nc3nc(NC4(c5ccc(Cl)cc5)CC4)nc(OCC(F)(F)F)n3)cc2)C(=O)Cl)c1` [Compound 3746], which EC50 is on record?
Its EC50 is 0.01 to 10 nM.

How did the EC50 turn out when `CC(C)(CNC(=O)C(=O)Nc1ccc(C#N)cc1)CNC(=O)c1ccc(Nc2nc(NC3(c4ccc(Cl)cc4)CC3)nc(OCc3ccccc3F)n2)cc1` [Compound 3853] was run?
The EC50 was 0.01 to 10 nM.

With `CC(=O)Nc1ccc(NC(=O)C(=O)NCC[C@H](NC(=O)c2ccc(Nc3nc(NC4(c5ccc(Cl)cc5)CC4)nc(OCC(F)(F)F)n3)cc2)C(=O)O)cn1` [Compound 3631] as the molecule, how does the EC50 read?
The EC50 was 0.01 to 10 nM.

How did the EC50 turn out when `Cn1cnnc1-c1cccc(NC(=O)C(=O)NC[C@H](NC(=O)c2ccc(Nc3nc(NC4(c5ccc(Cl)cc5)CC4)nc(OCC(F)(F)F)n3)cc2)C(=O)O)c1` [Compound 3774] was run?
The EC50 was 0.01 to 10 nM.

How did the EC50 turn out when `Nc1ccc(NC(=O)C(=O)NCC[C@H](NC(=O)c2ccc(Nc3nc(NC4(c5ccc(Cl)cc5)CC4)nc(OCC(F)(F)F)n3)cc2)C(=O)O)cn1` [Compound 3630] was run?
Its EC50 is 0.01 to 10 nM.

Same assay, conditions: Hepatitis C virus, Huh-7, read-out: Activity (EC50 class), HCV pseudoparticles (genotype 1a, H77C) in Huh7 cells; EC50 expressed as class A/B

For `COc1cccc(NC(=O)C(=O)NCC(C)(C)CNC(=O)c2ccc(Nc3nc(NC4(c5ccc(Cl)cc5)CC4)nc(OCC(F)(F)F)n3)cc2)c1` [Compound 3008], which EC50 is on record?
The EC50 was 0.01 to 10 nM.

How did the EC50 turn out when `CC(C)(CNC(=O)C(N)=O)CNC(=O)c1ccc(Nc2nc(NC3(c4ccc(Cl)cc4)CC3)nc(OCC(F)(F)F)n2)cc1-c1ccccc1` [Compound 3511] was run?
Its EC50 is 0.01 to 10 nM.

With `Cc1cccc(CNC(=O)C(=O)NCC(C)(C)CNC(=O)c2ccc(Nc3nc(NC4(c5ccc(Cl)cc5)CC4)nc(OCC(F)(F)F)n3)cc2)c1` [Compound 3042] as the molecule, how does the EC50 read?
Its EC50 is 0.01 to 10 nM.

`COC(=O)[C@H](CNC(=O)C(=O)Nc1ccc(Cn2cncn2)cc1)NC(=O)c1ccc(Nc2nc(NC3(c4ccc(Cl)cc4)CC3)nc(OCC(F)(F)F)n2)cc1` [Compound 3182] was tested. Which EC50 did it give?
Its EC50 is 0.01 to 10 nM.

`Cc1cc(C)n(-c2ccccc2NC(=O)C(=O)NCC(C)(C)CNC(=O)c2ccc(Nc3nc(NC4(c5ccc(Cl)cc5)CC4)nc(OCC(F)(F)F)n3)cc2)n1` [Compound 3177] was tested. Which EC50 did it give?
Its EC50 is 0.01 to 10 nM.

Which EC50 does the source give for `CC(C)(CNC(=O)C(=O)Nc1ccc2cc[nH]c2c1)CNC(=O)c1ccc(Nc2nc(NC3(c4ccc(Cl)cc4)CC3)nc(OCC(F)(F)F)n2)cc1` [Compound 3337] here?
The EC50 was 0.01 to 10 nM.

How did the EC50 turn out when `O=C(NC/C(=N/C(=O)c1ccc(Nc2nc(NC3(c4ccc(Cl)cc4)CC3)nc(OCC(F)(F)F)n2)cc1)C(=O)O)C(=O)Nc1ccc(N2CCN(Cc3ccccc3)CC2)cc1` [Compound 3169] was run?
Its EC50 is 0.01 to 10 nM.

For `COc1ccc(-c2ccccc2)c(NC(=O)C(=O)NCC(C)(C)CNC(=O)c2ccc(Nc3nc(NC4(c5ccc(Cl)cc5)CC4)nc(OCC(F)(F)F)n3)cc2)c1` [Compound 3014], which EC50 is on record?
The EC50 was 0.01 to 10 nM.

Which EC50 does the source give for `O=C(Nc1ccccc1)C(=O)N(CCO)CCCNC(=O)c1ccc(Nc2nc(NC3(c4ccc(Cl)cc4)CC3)nc(OCC(F)(F)F)n2)cc1` [Compound 3508] here?
The EC50 was 0.01 to 10 nM.

`CC(C)(CNC(=O)C(=O)Nc1ccc(C(F)(F)F)c(F)c1)CNC(=O)c1ccc(Nc2nc(NC3(c4ccc(Cl)cc4)CC3)nc(OCC(F)(F)F)n2)cc1` [Compound 3250] was tested. Which EC50 did it give?
The EC50 was 0.01 to 10 nM.

Which EC50 does the source give for `CC(C)(CNC(=O)C(=O)Nn1cnnc1)CNC(=O)c1ccc(Nc2nc(NC3(c4ccc(Cl)cc4)CC3)nc(OCC(F)(F)F)n2)cc1` [Compound 3253] here?
The EC50 was 0.01 to 10 nM.

Which EC50 does the source give for `C=Cc1ccc(NC(=O)C(=O)NCC(C)(C)CNC(=O)c2ccc(Nc3nc(NC4(c5ccc(Cl)cc5)CC4)nc(OCC(F)(F)F)n3)cc2F)cc1` [Compound 3515] here?
Its EC50 is 0.01 to 10 nM.

`COC(=O)[C@H](CNC(=O)C(=O)Nc1ccc(OC(F)F)cc1)NC(=O)c1ccc(Nc2nc(NC3(c4ccc(Cl)cc4)CC3)nc(OCC(F)(F)F)n2)cc1` [Compound 3215] was tested. Which EC50 did it give?
The EC50 was 0.01 to 10 nM.

Which EC50 does the source give for `C=Cc1cccc(NC(=O)C(=O)NCC[C@@H](NC(=O)c2ccc(Nc3nc(NC4(c5ccc(Cl)cc5)CC4)nc(OCC(F)(F)F)n3)cc2)C(=O)OC)c1` [Compound 3574] here?
Its EC50 is 0.01 to 10 nM.

How did the EC50 turn out when `COC(=O)[C@H](CCNC(=O)C(=O)Nc1ccc(Cn2cccn2)cc1)NC(=O)c1ccc(Nc2nc(NC3(c4ccc(Cl)cc4)CC3)nc(OCC(F)(F)F)n2)cc1` [Compound 3312] was run?
The EC50 was 0.01 to 10 nM.
